Data published in patent publication US20230167450A1, “BIFUNCTIONAL MOLECULES AND METHODS OF USING THEREOF” (Flagship Pioneering, Inc., priority 2020, published 2023).

B1: ASO1: Non-targeting (scramble) control ASO, …, 2′-MOE phosphorothioate; tested conjugated at 5′ end with Ibrutinib-MPEA (nucleic acid)
chain: CCUUGAAAUCCAUGACGCAGGGAGAAUUGCGUCAUUUAAAGCCUAGUUAACGCAUUUACUAAACGCAGACGAAAAUGGAAAGAUUAAUUGGGAGUGGUAGGAUGAAACAAUUUGGAGAAGAUAGAAGUUUGAAGUGGAAAACUGGAAGACAGAAGUACGGGAAGGCGAA
modifications: Cy5-labeled IVT RNA

System: mRNA encoding Renilla Luciferase protein
Assay: Renilla luciferase activity (protein expression) in HEK293T cells co-transfected with pRL-TK target plasmid and BTK-fused effector plasmid
Format: cell-based, human
Details: ASO conjugated at the 5′ end with Ibrutinib-MPEA; effector fused to BTK
Source text: The Ibrutinib-conjugated ASOs described in Example 4a (shown in Table 5 below) were co-transfected into human cells along with the plasmid expressing the target Renilla luciferase described in example 4b, as well as the plasmid expressing BTK-YTHDF1 effector protein described example 4c.
A 96-well cell culture plate with 70% confluent HEK293T cells was transfected with the 50 nanograms of the target luciferase plasmid and 100 nanograms of the plasmid expressing the BTK-YTHDF1 effector, using Lipofectamine 2000 (Thermo Fisher Scientific) according to the manufacturer's instruction. After 24 hours, targeting (test) and non-targeting (control) ASOi were transfected separately into the cells at the final concentration of 100 nM using Lipofectamine RNaiMax (Thermo Fisher Scientific) according to the manufacturer's instruction. For each condition, cells were allowed to recover and are subsequently analyzed 48 hours after the transfection of ASOis.
Pierce Renilla Luciferase Glow Assay Kit (Thermo Fisher Scientific) was used for measuring the luciferase activity corresponding to protein expression in each condition, according to manufacturer's instruction. The luminescence was measured and quantified by a GloMax plate reader and its integrated software (Promega Corp.), according to manufacturer's instruction (FIG. 4). […]

Molecule	Effector(s) increasing translation
ASO3: Rluc RNA-targeting ASO, TTCTGCAGCTTAAGTTCGA, 2′-MOE phosphorothioate; tested conjugated at 5′ end with Ibrutinib-MPEA (*/i2MOErT/*/i2MOErT/*/i2MOErC/*/i2MOErT/*/i2MOErG/*/i2MOErC/*/i2MOErA/*/i2MOErG/*/i2MOErC/*/i2MOErT/*/i2MOErT/*/i2MOErA/*/i2MOErA/*/i2MOErG/*/i2MOErT/*/i2MOErT/*/i2MOErC/*/i2MOErG/*/32MOErA/; as printed in the source, key not given here)	YTHDF1, EIF4E
B1	YTHDF1, EIF4E
